Assay results reported in patent US9717719B2, “Treatment, prevention, and reversal of alcohol-induced liver disease” (Rhode Island Hospital, priority 2006, dated 2017).
“Also recorded” adds a separate entry of the source.

Columns and labels:
IGF-II receptor = assay: Saturation binding assay in liver of treated rats, IGF-II receptor binding; assay type: in vivo, rat; conditions: pooled liver of 8 rats
Excerpt: Adult male (˜200-250 g) Long Evans rats (Harlan Sprague Dawley, Inc., Indianapolis, Ind.) were pair-fed with isocaloric liquid diets (BioServ, Frenchtown, N.J.) containing 0% (control) or 37% ethanol by caloric content (9.2% v/v) for 8 weeks. During the week prior to initiating the experiment, rats were adapted to the ethanol-containing diets by sequentially feeding them for two days each with diets containing 8%, 17%, 24%, and then 37% ethanol. Chow fed control rats were also studied. Rats were monitored daily to ensure equivalent food consumption and maintenance of body weight. During the last 3 weeks of the experiment while being maintained on either the 0% or 37% ethanol-containing liquid diets, rats in both groups were administered twice weekly (Mondays and Thursdays) intra-peritoneal (i.p.) injections of vehicle (saline), a PPAR-α (GW7647; 25 μg/kg), PPAR δ (L-165,041; 2 μg/kg), or PPAR-γ (F-L-Leu; 20 μg/kg) agonist (CalBiochem, Carlsbad, Calif.). At the conclusion of the experiment, rats were anesthetized with vaporized isofluorane (SurgiVet, Inc. Waukesha, Wis.), and liver and blood were harvested for analysis. Liver tissue samples were immersion fixed in Histochoice (Amresco Corp., Solon, Ohio) and embedded in paraffin. Adjacent histological sections were stained with Hematoxylin and Eosin or Gomori's Trichrome and examined under code. In addition, liver tissue samples were snap-frozen in a dry ice methanol bath and then stored at −80° C. for later mRNA and protein studies. Throughout the experiment, rats were housed under humane conditions and kept on a 12-hour light/dark cycle with free access to food. All experiments were performed in accordance with protocols that conform to guidelines established by the National Institutes of Health and were approved by Institutional Animal Care and Use Committee at the Lifespan-Rhode Island Hospital.
Saturation binding studies were used to determine if the PPAR agonist treatments improved ethanol-impaired insulin and IGF receptor binding in liver. Fresh frozen liver tissue was homogenized in 5 volumes of lysis buffer containing 50 mM Tris-HCl, pH 7.5, 1% NP-40, 150 mM NaCl, 1 mM EDTA, 2 mM EGTA, plus protease (1 mM PMSF, 0.1 mM TPCK, 1 μg/ml aprotinin, 1 μg/ml pepstatin A, 0.5 μg/ml leupeptin, 1 mM NaF, 1 mM Na4P2O7) and phosphatase (2 mM Na3VO4) inhibitors. Protein concentration was determined using the bicinchoninic acid (BCA) assay (Pierce, Rockford, Ill.). Exploratory studies determined the optimum amounts of protein and concentrations of radiolabeled ligand required to achieve 20% specific binding. Insulin receptor binding was measured using 100 μg protein per assay tube. IGF-I binding assays required 25 μg protein per sample, and IGF-II receptor binding assays required 10 μg protein per reaction.
To generate the binding curse, samples from 8 rats per group were pooled in equivalent ratios and protein concentrations were adjusted to be identical for each group. For total binding, duplicate samples were incubated in 100 μl reactions containing binding buffer (100 mM HEPES, pH 8.0, 118 mM NaCl, 1.2 mM MgSO4, 8.8 mM dextrose, 5 mM KCl, 1% bovine serum albumin) and 0.0031 to 1 μCi/ml of [^125I] (2000 Ci/mmol) insulin, IGF-I, or IGF-II. For non-specific binding, duplicate samples were identically prepared but with the addition of 0.1 μM unlabeled (cold) ligand. Incubations were carried out for 16 hours at 4° C. in non-binding 96 well plates (Corning Incorporated Life Science, Lowell, Mass.). Reactions were vacuum harvested (Corning, Lowell, Mass.) onto 96-well GF/C filter plates that had been presoaked for 30 minutes in 0.33% polyethyleneimine (PEI) solution. The filters were washed 5 times with buffer containing 50 mM buffer [4-2-hydroxyethyl)-1-piperazine-ethanesulfonic acid (HEPES), pH 7.4, 500 mM NaCl, and 0.1% BSA. […]

[1] = tested on: Long-Evans male rats fed a 37% ethanol liquid diet; assay: DNA damage in liver by 8-OHdG immunostaining; assay type: in vivo, rat; conditions: chronic ethanol fed rats
Procedure: An isocaloric (sucrose substituted for ethanol) diet was administered to pair fed control animals. After three weeks, both groups of rats were injected with either PPAR-α, γ, or δ agonists or saline as a control. […] The […] were given IP injections twice a week. At 6 weeks, the animals underwent 2/3 partial hepatectomy. The removed liver was used for histology, measurement of lipid peroxidation, DNA damage and insulin/IGF signaling as described below. Following ⅔ hepatectomy, the liver remnants were harvested 18, 24, 30 and 48 hours later to assess the regenerative response. To do this, animals were injected IP with BrdU 2 hours before harvest to measure its incorporation into hepatic nuclei as an index of DNA synthesis.
Paraffin sections (8 μm thick) were immunostained with monoclonal antibodies to 8-hydroxy-deoxyguanosine (8-OHdG) (Oxis Research) or 4-hydroxynonenol (HNE) (Chemicon International, Temecula, Calif.), to detect DNA damage and lipid peroxidation, respectively. Prior to immunostaining, the deparaffinized, re-hydrated sections were treated with 0.1 mg/ml saponin in phosphate buffered saline (10 mM sodium phosphate, 0.9% NaCl, pH 7.4; PBS) for 20 minutes at room temperature, followed by 3% hydrogen peroxide in methanol for 10 minutes to quench endogenous peroxidase activity, and then a 30-minute incubation in SuperBlock-TBS (Pierce Chemical Co., Rockford, Ill.) to block non-specific binding sites. The tissue sections were then incubated overnight at 4° C. with 0.5-1 μg/ml of primary antibody. […] The tissue sections were counterstained with hematoxylin, preserved under coverglass, and examined by light microscopy.

Compound | BMAX ± S.E.M. (IGF-II receptor; Control + agonist) | BMAX ± S.E.M. (IGF-II receptor; Ethanol + agonist) | DNA damage (8-OHdG immunoreactivity) [1]
CC(C)C[C@H](NC(=O)OCC1c2ccccc2-c2ccccc21)C(=O)O [PPAR-γ, F-L-Leu] | 25.20 ± 2.04 | 22.56 ± 4.43 | protective effect
CC(C)(Sc1ccc(CCN(CCCCC2CCCCC2)C(=O)NC2CCCCC2)cc1)C(=O)O [PPAR-α, GW7647] | 40.27 ± 3.28 | 28.88 ± 6.20 | protective effect
CCCc1c(OCCCOc2ccc(OCC(=O)O)cc2)ccc(C(C)=O)c1O [PPAR-δ, L-165,041] | 29.01 ± 1.99 | 51.50 ± 13.53 | most prominent protective effect; also recorded: superior to the α and γ agents in preventing hepatocyte damage
